The values that follow come from US11020395B2, “Cycloalkyl substituted triazole compounds as agonists of the APJ receptor” (AMGEN INC., priority 2016, dated 2021).

As a reminder, the EC50 is the concentration needed to bring the measured effect to its halfway point.

In the test the target is human APJ receptor (Homo sapiens (Human), UniProt P35414). The experiment in a line: [35S]GTPγS binding assay on membranes from CHO cells stably expressing human APJ receptor. Type of test: biochemical. The settings on record: [35S]GTPγS SPA, read-out: Activity hAPJ SPA EC50 IP. The method, boiled down:
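Agonist-stimulated [35S]GTPγS binding measured on membranes of a stable human APJ CHO line, 90 min at room temperature, with GDP, MgCl2 and NaCl levels optimized beforehand. Means of independent runs fitted by non-linear regression to give EC50.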

Chain of human APJ receptor (P35414 whole entry): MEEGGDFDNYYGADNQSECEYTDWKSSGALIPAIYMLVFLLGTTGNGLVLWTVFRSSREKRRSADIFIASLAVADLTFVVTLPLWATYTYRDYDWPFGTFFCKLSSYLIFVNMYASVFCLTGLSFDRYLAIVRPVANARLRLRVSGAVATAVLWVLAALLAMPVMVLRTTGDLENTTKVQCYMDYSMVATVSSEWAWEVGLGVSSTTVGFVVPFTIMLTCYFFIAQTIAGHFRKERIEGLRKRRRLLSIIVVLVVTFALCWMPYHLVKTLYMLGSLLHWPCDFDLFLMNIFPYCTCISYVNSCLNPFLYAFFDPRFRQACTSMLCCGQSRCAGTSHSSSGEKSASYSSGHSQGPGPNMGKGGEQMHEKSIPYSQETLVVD

Take `COc1ncnc(OC)c1-n1c(NS(=O)(=O)[C@@H](C)[C@@H](OC(C)C)c2ncc(Cl)cn2)nnc1[C@@H]1CC[C@@H]1C(F)F` (single isomer, unassigned) [Example 168.0, (1S,2S)-1-(5-chloropyrimidin-2-yl)-N-(5-((1R,2S)-2-(difluoromethyl)cyclobutyl)-4-(4,6-dimethoxypyrimidin-5-yl)-4H-1,2,4-triazol-3-yl)-1-isopropylpropane-2-sulfonamide or (1S,2S)-1-(5-chloropyrimidin-2-yl)-N-(5-((1S,2R)-2-(difluoromethyl)cyclobutyl)-4-(4,6-dimethoxypyrimidin-5-yl)-4H-1,2,4-triazol-3-yl)-1-isopropoxypropane-2-sulfonamide]: the EC50 was found to be 8 nM.
The figure for `COc1cccc(OC)c1-n1c(NS(=O)(=O)[C@@H](C)[C@H](OC)c2ncc(Cl)cn2)nnc1C1CCCC1` [Example 241.0, (1R,25)-1-(5-chloro-2-pyrimidinyl)-N-(5-cyclopentyl-4-(2,6-dimethoxyphenyl)-4H-1,2,4-triazol-3-yl)-1-methoxy-2-propanesulfonamide] is 1.2 nM; for `COc1ncnc(OC)c1-n1c(NS(=O)(=O)[C@@H](C)[C@H](OC)c2ncc(C)cn2)nnc1C1CCC1` [Example 90.0, (1R,2S)-N-(5-cyclobutyl-4-(4,6-dimethoxypyrimidin-5-yl)-4H-1,2,4-triazol-3-yl)-1-methoxy-1-(5-methylpyrimidin-2-yl)propane-2-sulfonamide] it is 9.2 nM; for `COc1cccc(OC)c1-n1c(NS(=O)(=O)[C@@H](C)[C@H](OC)c2ncc(Cl)cn2)nnc1[C@H]1CCC1(F)F` (single isomer, unassigned) [Example 159.0, (1R,2S)-1-(5-chloropyrimidin-2-yl)-N-(5-((R)-2,2-difluorocyclobutyl)-4-(2,6-dimethoxyphenyl)-4H-1,2,4-triazol-3-yl)-1-methoxypropane-2-sulfonamide or (1R,2S)-1-(5-chloropyrimidin-2-yl)-N-(5-((S)-2,2-difluorocyclobutyl)-4-(2,6-dimethoxyphenyl)-4H-1,2,4-triazol-3-yl)-1-methoxypropane-2-sulfonamide] it is 8 nM.
The figure for `COc1cccc(OC)c1-n1c(NS(=O)(=O)[C@@H](C)[C@H](OC)c2ncc(Cl)cn2)nnc1[C@H]1C[C@H](C)C1` [Example 148.0, (1R,2S)-1-(5-chloropyrimidin-2-yl)-N-(4-(2,6-dimethoxyphenyl)-5-((1r,3S)-3-methylcyclobutyl)-4H-1,2,4-triazol-3-yl)-1-methoxypropane-2-sulfonamide and (1R,2S)-1-(5-chloropyrimidin-2-yl)-N-(4-(2,6-dimethoxyphenyl)-5-((1r,3R)-3-methylcyclobutyl)-4H-1,2,4-triazol-3-yl)-1-methoxypropane-2-sulfonamide] is 1.1 nM; for “(1R,2S)-1-(5-chloropyrimidin-2-yl)-N-(4-(2,6-dimethoxyphenyl)-5-((R)-3-oxocyclopentyl)-4H-1,2,4-triazol-3-yl)-1-methoxypropane-2-sulfonamide or (1R,2S)-1-(5-chloropyrimidin-2-yl)-N-(4-(2,6-dimethoxyphenyl)-5-((S)-3-oxocyclopentyl)-4H-1,2,4-triazol-3-yl)-1-methoxypropane-2-sulfonamide [Example 225.0]” it is 160 nM.
As for `COc1cccc(OC)c1-n1c(NS(=O)(=O)[C@@H](C)[C@H](C)c2ncc(C)cn2)nnc1C1(c2ccccn2)CC1` [Example 126.0], the concentration for a half-maximal effect (EC50) was determined as 4200 nM.
The figure for `COc1ncnc(OC)c1-n1c(NS(=O)(=O)[C@@H](C)[C@H](C)c2ccc(Cl)cn2)nnc1C1CCC1` [Example 87.0, (2S,3R)-3-(5-chloro-2-pyridinyl)-N-(5-cyclobutyl-4-(4,6-dimethoxy-5-pyrimidinyl)-4H-1,2,4-triazol-3-yl)-2-butanesulfonamide] is 2 nM.
